The record followed here is ChEMBL document CHEMBL1201862, “PubChem BioAssay data set” (2004).

Assay [1] addresses Melanin-concentrating hormone receptor 1 (Homo sapiens, UniProt Q99705). The experiment in a line: Late-stage fluorescence-based counterscreen for antagonists of the G-protein coupled receptor 7 (GPR7): cell-based dose response assay to identify antagonists of the melanin-concentrating hormone receptor 1 (MCHR1). [Related pubchem assays (depositor defined):AID1861, AID1880, AID1952, AID2148, AID2251, AID2257, AID485339]. It counts as functional. (In general: Counterscreens check selectivity or assay interference.)

The target of assay [2] is T1, Neuropeptides B/W receptor type 1 (Homo sapiens, UniProt P48145).
T1 sequence (P48145 whole entry): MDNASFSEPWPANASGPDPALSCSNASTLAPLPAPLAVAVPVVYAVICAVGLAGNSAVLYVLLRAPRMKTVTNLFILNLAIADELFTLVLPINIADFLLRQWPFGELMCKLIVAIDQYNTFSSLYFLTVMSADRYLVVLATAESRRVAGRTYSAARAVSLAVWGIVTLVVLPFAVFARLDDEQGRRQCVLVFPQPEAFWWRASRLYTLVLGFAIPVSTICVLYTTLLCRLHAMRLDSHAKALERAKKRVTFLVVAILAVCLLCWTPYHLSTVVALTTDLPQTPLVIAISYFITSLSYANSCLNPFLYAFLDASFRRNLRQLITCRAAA
The experiment in a line: GPR7 antagonist potency, late-stage follow-up, cell-based, fluorescence, dose response (AID 463251). The format is functional.

In assay [3] the target is Female germline-specific tumor suppressor gld-1 (Caenorhabditis elegans, UniProt Q17339). In words: inhibitors of GLD-1 binding to TGE RNA, dose response, biochemical, fluorescence polarization, C. elegans (AID 2802).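 Note: fluorescence polarization of labeled TGE RNA bound by purified gld-1 protein.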 For orientation: Fluorescence polarisation rises when a labelled molecule tumbles more slowly, as on binding a larger partner.
The target in assay [4] is T2, Zinc finger protein mex-5 (Caenorhabditis elegans, UniProt Q9XUB2).
T2 sequence (Q9XUB2 whole entry): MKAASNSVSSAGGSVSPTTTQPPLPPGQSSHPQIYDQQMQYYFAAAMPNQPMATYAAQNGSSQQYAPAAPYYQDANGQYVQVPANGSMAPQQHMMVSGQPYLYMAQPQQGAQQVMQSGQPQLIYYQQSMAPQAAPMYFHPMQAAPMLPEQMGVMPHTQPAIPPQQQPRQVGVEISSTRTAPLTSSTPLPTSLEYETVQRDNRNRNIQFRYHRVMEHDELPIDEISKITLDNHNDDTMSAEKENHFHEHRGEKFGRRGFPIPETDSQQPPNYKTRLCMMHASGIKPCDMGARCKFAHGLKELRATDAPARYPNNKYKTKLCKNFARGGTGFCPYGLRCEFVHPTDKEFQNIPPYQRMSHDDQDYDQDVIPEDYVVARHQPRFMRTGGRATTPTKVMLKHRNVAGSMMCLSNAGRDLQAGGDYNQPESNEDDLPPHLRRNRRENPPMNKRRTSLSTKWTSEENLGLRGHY
In words: MEX-5/TCR-2 RNA interaction inhibitors, dose response, biochemical, C. elegans, fluorescence polarization (AID 1960).

In assay [5] the target is Protein Rev (Human immunodeficiency virus type 1 group M subtype B (isolate HXB2)(HIV-1), UniProt P04618). In words: inhibitors of Rev binding to RRE RNA, dose response, biochemical, fluorescence polarization, HIV-1 (AID 434976). Also noted: species or system Human immunodeficiency virus 1.
Assay [6] deals with Protein S100-A4 (Homo sapiens, UniProt P26447). In words: S100A4-myosin IIA binding inhibitor potency, dose response, biochemical, fluorescence polarization, cherry-picked hits (AID 687001). It counts as functional.
Assay [7] deals with T3, Histone-lysine N-methyltransferase NSD2 (Homo sapiens, UniProt O96028).
T3 sequence (O96028 whole entry): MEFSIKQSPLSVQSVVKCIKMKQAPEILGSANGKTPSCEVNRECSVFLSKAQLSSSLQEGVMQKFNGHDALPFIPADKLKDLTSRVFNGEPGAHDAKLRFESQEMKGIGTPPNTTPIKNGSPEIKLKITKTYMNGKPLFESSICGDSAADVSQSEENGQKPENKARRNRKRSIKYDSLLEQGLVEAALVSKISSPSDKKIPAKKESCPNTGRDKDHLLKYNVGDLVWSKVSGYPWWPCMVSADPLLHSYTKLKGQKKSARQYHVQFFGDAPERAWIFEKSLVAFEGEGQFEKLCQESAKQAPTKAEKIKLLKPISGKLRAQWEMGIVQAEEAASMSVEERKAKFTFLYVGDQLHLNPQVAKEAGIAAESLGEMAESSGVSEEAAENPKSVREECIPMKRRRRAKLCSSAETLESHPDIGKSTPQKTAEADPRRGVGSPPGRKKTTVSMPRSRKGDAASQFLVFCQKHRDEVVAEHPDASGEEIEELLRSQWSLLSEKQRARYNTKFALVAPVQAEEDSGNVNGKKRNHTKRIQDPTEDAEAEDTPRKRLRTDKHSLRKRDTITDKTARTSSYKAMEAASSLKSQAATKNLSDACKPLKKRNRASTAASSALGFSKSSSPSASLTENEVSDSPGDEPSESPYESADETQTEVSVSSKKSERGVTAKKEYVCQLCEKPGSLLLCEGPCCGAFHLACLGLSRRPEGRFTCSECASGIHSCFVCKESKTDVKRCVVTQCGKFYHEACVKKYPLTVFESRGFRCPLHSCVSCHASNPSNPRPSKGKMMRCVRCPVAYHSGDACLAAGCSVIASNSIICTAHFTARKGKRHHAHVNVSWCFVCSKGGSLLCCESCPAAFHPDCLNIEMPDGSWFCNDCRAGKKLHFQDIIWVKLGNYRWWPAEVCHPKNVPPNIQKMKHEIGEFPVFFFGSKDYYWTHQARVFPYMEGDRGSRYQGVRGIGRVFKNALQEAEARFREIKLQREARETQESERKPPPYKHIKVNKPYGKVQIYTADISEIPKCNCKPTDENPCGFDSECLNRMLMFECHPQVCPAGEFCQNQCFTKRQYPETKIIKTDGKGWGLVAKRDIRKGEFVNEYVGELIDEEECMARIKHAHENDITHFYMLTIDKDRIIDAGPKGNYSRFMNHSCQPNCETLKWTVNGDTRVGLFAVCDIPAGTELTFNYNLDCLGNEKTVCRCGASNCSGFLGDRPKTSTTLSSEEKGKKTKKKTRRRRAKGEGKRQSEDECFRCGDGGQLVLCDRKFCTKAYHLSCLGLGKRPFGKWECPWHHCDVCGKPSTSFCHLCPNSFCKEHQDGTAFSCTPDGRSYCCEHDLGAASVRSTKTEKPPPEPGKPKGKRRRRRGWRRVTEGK
It counts as biochemical.

For assay [8], the target named is T4, Long-chain-fatty-acid--AMP ligase FadD28 (Mycobacterium tuberculosis, UniProt P9WQ59).
T4 sequence (P9WQ59 whole entry): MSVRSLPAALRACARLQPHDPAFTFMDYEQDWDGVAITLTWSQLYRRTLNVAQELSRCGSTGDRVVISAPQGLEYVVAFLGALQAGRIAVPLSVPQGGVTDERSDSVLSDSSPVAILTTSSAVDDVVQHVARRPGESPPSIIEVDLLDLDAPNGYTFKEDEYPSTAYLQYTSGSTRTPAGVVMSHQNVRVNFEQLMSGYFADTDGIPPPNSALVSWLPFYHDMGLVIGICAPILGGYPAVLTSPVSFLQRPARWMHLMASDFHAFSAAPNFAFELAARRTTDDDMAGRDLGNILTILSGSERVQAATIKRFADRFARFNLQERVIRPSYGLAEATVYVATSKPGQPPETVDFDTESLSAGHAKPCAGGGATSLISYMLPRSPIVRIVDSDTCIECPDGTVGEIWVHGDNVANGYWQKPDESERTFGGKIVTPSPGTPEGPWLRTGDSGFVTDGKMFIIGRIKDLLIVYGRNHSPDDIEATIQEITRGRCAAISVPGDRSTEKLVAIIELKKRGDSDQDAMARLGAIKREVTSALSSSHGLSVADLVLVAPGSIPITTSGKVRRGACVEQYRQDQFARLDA
In words: Fluorescence polarization aasay to screen for inhibitors that compete for the binding of FadD28 to a bisubstrate Measured in Biochemical System Using Plate Reader - 2147-01_Inhibitor_Dose_CherryPick_Activity. The format is functional, Mycobacterium tuberculosis H37Rv.

In assay [9] the target is T5, RNA-binding protein pos-1 (Caenorhabditis elegans, UniProt G5EF15).
T5 sequence (G5EF15 whole entry): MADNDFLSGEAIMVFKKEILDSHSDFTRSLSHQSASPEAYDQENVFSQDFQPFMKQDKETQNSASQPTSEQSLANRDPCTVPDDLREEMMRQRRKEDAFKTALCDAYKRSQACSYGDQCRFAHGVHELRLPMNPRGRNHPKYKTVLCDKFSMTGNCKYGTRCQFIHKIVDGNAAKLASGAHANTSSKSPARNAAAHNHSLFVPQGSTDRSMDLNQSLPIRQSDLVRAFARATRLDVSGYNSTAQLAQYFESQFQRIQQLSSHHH
In words: inhibitors of POS-1/mex-3 RNA binding, dose response, biochemical, fluorescence polarization (AID 1964).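 Note: purified POS-1 fused to maltose binding protein made in E. coli; potency of compounds blocking POS-1 binding to fluorescent RNA.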

In assay [10] the target is T6, Fibrinogen beta chain (Homo sapiens, UniProt P02675). The experiment in a line: Fluorescence polarization-based biochemical high throughput dose response assay to identify inhibitors that disrupt the binding of a cyclic peptide (Tn7) to the fibrin proteolytic product D-Dimer and fragment E complex [DD(E )].
Assay [11] deals with T6, Fibrinogen beta chain. The experiment in a line: Fluorescence polarization-based biochemical high throughput dose response assay to identify inhibitors that disrupt the binding of a cyclic peptide (Tn6) to the fibrin proteolytic product D-Dimer and fragment E complex [DD(E )].
For assay [12], the target named is Cystic fibrosis transmembrane conductance regulator/Golgi-associated PDZ and coiled-coil motif-containing protein (Homo sapiens, UniProt P13569+Q9HD26). The experiment in a line: CAL PDZ peptide-binding inhibitors, dose response, biochemical, fluorescence polarization, Cerulean-tagged CAL PDZ, cherry-picks (AID 504773).

The source made the active and inactive calls. A value given as a limit tells only on which side of the number the result lay.

T6 sequence (P02675 whole entry, the tested form may be a part): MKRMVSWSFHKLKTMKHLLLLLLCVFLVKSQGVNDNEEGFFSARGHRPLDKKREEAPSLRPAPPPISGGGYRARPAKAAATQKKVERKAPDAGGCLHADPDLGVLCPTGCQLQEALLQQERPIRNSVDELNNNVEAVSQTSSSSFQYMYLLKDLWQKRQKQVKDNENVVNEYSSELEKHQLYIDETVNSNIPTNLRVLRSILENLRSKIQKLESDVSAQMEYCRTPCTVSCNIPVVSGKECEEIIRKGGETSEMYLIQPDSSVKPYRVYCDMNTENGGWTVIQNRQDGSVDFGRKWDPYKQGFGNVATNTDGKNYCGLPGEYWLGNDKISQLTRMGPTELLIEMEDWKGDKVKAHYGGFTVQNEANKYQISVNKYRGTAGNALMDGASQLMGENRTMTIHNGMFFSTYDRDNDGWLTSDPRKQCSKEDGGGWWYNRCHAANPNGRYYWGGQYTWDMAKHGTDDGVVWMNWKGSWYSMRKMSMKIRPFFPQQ
Chain of Melanin-concentrating hormone receptor 1 (Q99705 whole entry): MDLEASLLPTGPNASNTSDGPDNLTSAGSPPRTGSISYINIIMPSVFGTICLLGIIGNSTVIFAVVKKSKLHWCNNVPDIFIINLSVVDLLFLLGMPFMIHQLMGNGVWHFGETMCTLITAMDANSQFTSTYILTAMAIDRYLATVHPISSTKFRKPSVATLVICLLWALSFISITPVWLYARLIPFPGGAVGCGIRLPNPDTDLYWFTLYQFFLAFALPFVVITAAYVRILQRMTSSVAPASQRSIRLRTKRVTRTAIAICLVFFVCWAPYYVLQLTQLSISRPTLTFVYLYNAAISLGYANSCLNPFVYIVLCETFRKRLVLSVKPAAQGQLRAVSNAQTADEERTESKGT
Chain of Protein S100-A4 (P26447 whole entry): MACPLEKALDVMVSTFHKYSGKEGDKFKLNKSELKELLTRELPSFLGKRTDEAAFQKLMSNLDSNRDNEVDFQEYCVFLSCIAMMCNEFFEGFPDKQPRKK
Chain of Protein Rev (P04618 whole entry): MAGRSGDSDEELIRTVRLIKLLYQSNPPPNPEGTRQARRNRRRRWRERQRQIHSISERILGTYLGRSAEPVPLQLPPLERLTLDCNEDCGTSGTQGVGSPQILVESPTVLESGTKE
Chain of Female germline-specific tumor suppressor gld-1 (Q17339 whole entry): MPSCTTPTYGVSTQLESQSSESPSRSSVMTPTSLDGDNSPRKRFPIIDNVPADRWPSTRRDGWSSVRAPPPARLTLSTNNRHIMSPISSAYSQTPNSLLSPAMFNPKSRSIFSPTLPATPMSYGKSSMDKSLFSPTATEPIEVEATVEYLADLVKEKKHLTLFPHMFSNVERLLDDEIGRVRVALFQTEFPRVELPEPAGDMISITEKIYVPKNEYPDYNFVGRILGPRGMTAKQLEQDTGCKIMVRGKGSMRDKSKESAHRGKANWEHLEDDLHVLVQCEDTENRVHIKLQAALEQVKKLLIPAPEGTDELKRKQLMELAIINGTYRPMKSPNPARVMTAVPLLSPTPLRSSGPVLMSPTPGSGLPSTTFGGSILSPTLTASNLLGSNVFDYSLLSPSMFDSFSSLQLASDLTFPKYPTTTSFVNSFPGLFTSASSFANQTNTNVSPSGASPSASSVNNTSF
Chain of Cystic fibrosis transmembrane conductance regulator/Golgi-associated PDZ and coiled-coil motif-containing protein (P13569 whole entry, other chains not shown): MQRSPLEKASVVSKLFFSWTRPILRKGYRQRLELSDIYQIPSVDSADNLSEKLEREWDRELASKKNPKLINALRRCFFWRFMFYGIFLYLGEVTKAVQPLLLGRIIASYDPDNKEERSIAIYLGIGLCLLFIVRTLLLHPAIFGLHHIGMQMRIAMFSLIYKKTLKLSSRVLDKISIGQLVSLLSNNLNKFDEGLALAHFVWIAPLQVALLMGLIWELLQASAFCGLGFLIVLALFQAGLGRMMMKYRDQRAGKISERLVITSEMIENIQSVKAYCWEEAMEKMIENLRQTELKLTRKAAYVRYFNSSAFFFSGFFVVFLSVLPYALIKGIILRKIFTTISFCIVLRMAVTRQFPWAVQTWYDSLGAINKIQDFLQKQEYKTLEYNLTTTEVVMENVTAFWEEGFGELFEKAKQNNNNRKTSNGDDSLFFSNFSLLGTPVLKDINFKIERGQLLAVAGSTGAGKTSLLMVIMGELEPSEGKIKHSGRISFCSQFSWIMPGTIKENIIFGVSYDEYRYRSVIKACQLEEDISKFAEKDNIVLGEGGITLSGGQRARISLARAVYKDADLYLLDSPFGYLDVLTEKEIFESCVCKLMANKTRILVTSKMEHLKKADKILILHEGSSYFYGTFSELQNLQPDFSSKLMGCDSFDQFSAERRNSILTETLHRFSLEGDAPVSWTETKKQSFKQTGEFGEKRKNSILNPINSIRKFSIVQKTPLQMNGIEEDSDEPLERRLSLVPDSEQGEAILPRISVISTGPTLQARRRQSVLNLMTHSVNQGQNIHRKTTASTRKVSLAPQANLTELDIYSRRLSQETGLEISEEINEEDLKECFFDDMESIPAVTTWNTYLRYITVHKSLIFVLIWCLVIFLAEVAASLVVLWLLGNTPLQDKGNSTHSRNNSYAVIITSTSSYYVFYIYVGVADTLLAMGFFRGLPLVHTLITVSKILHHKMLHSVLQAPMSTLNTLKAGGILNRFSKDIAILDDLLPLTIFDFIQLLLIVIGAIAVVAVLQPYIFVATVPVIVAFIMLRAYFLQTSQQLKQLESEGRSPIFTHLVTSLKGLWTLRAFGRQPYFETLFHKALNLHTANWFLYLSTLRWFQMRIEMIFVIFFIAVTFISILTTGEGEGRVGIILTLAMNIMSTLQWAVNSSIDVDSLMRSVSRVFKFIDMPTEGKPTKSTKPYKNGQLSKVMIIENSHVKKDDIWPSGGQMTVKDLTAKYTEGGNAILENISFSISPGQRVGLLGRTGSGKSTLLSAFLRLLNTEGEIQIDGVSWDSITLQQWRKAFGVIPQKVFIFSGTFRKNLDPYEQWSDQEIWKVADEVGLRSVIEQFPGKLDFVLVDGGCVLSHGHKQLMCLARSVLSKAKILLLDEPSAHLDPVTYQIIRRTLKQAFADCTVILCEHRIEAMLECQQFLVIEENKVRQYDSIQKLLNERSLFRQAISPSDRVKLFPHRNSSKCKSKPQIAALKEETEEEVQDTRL

The term IC50 denotes the concentration needed to halve the response being measured. Consider `COc1ccc(Oc2c(Cl)cnn(-c3cc(C(F)(F)F)cc(C(F)(F)F)c3)c2=O)cc1`, for which the half-maximal inhibitory concentration (IC50) in assay [1] was 1.5 µM (active); in assay [2], 1.2 µM (active).
One may read the EC50 as the concentration needed to bring the measured effect to its halfway point. In general, AC50 refers to the midpoint of the concentration-response curve, whichever way the signal moves. With `Cn1c(=O)cc2c3c(c(N4CCCCC4)ccc31)C(=O)c1ccccc1-2`, the IC50 in assay [3] is 4.96 µM (active); in [5] it was 14.2 µM (not active); in assay [10] it was > 83.3 µM (inactive); in assay [11], > 27.8 µM (inactive). Also, the EC50 in [4] was 25.9 µM (active); in assay [9] it was > 300 µM (inconclusive). For the same compound, the AC50 in assay [6] is 1.72 µM (active); in [7], 12.3 µM (active); in [8], 11.8 µM (active).
As to `Cc1sc(NC(=O)c2ccco2)c(C(Nc2ccccn2)c2ccccc2)c1C` (configuration not stated), the AC50 in assay [12] is 60.1 µM (active).
